Assay results taken from patent US12329799B2, “Peptidyl inhibitors of calcineurin-NFAT interaction” (Ohio State Innovation Foundation, priority 2018, dated 2025).
Positions of bridges follow the written chain, without caps; N, C: chain ends. Non-standard residues stand in square brackets, D forms with d. Residues, ends and D or L forms follow the SMILES beside them. Chains are numbered I, II in the order given. *: point of attachment. FITC = O=C1OC2(c3ccc(O)cc3Oc3cc(O)ccc32)c2ccc(NC(=S)*)cc21; Benzoyl(2,3-Cl2) = O=C(c1cccc(Cl)c1Cl)*; Phe(4-F) = N[C@@H](Cc1ccc(F)cc1)C(=O)O; 2Nal = N[C@@H](Cc1ccc2ccccc2c1)C(=O)O; Val(3-OH) = CC(C)(O)[C@H](N)C(=O)O; Chg = N[C@H](C(=O)O)C1CCCCC1; Tle = CC(C)(C)[C@H](N)C(=O)O; X1 = O=C(c1ccnc(Cl)c1Cl)*; βAla = NCCC(=O)O

Columns and labels:
[1] = tested on: Caco-2 cell monolayers; assay: Caco-2 permeability assay; type: in vitro ADME
Description: (§1) Caco-2 permeability assay. To assay the permeability of test compounds by Caco-2 cell model, Caco-2 cells were cultured to confluency before being trypsinized and seeded onto filter transwell inserts at a density of 30,000 cells/well in DMEM medium. Cells were cultured in a humidified atmosphere with 5% CO2 at 37° C. After overnight attachment, cell medium was replaced with fresh medium at both apical and basolateral sides every other day. The cell monolayers are ready for the assay 20 days post seeding. […] The dosing solution at 10 μM was obtained by diluting 10 mM stock solution in HBSS medium (pH 7.4, 25 mM HEPES) freshly before the assay. Terfenadine (25 ng/mL) and Tolbutamide (50 ng/mL) were added into dosing solution as internal standards. […] The culture medium from either the basolateral side (plate B) or apical side (plate A) were aspirated and then rinsed with HBSS medium once. Afterwards, the dosing medium was added to either basolateral or apical side. Following the incubation, 100 microliter samples from both sides were harvested at time 0 and time 90 min. Samples were quenched with acetonitrile/methanol (1:1 v/v), centrifuged, and analyzed on a Shimadzu reversed-phase HPLC and Sciex API4500 Q trap instrument.
(§2) Permeability parameters were calculated using the following equations and shown in Table 10: Papp=(Conc.receiver,90 min*Volumereceiver)/(Time*Membrane Area*Conc.donor,0 min) Efflux Ratio=Papp[B to A]/Papp[A to B]

[2] = Aqueous solubility (turbidity at 780 nm); type: physicochemical
Description: The peptide was serially diluted from a DMSO stock into PBS (pH 7.4) containing 5% DMSO and the optical density of the resulting solutions were measured at 780 nm.
Solubility. Peptides were diluted from a DMSO stock into PBS, pH 7.4 and then serially diluted in identical buffer to standardize DMSO concentration in clear, 96-well plates. The solutions were allowed to stand for 1 h at RT without mixing and then turbidity was measured at 780 nm using a Tecan Infinite M1000 plate reader.

[3] = in vitro; type: in vitro ADME; parameters: dose or concentration left out as unconfirmed; conditions: mouse, plasma; for fraction unbound at 5 h: pH 7.4
Description: (§3) Plasma binding was assessed using mouse plasma obtained from in-life studies. CNI103 was diluted to […] in pre-warmed mouse plasma. The solution was added to the left chamber of a commercial plate based RED (rapid equilibrium dialysis) device. Isotonic sodium phosphate buffer (100 mM sodium phosphate, 100 mM sodium chloride, pH 7.4) was added to the outer chamber of the RED device and the plate was incubated at 37° C. for five hours. Aliquots of the buffer and the plasma were withdrawn before and after the incubation and the concentrations of free and bound test compound were determined by LC/MS/MS analysis. To test for plasma stability, the dosing solution was also incubated at 37° C. for 5 hours and the concentration of CNI103 was determined by LC/MS/MS analysis as described above.
(§4) The calculation of percentage binding is calculated using the following equations and the results are presented in Table 13: Binding %=(Cpe−Cb)/Cpe×100 • Cpe=Conc. of test compound in plasma at equilibrium • Cb=Conc. of test compound in buffer at equilibrium % Stability of test compound=(Conc. of stability sample/Conc. of time zero sample)×100 % Recovery=(Cpe+Cb)/Conc. of stability sample×100

[4] = tested on: plasma protein; assay: in vitro; type: in vitro ADME; parameters: dose or concentration left out as unconfirmed; conditions: mouse, pH 7.4
Description: as §3, §4

[5] = Caco-2 permeability assay; type: in vitro ADME; conditions: human, Caco-2, pH 7.4
Description: as §1, §2

[6] = Serum stability assay; type: in vitro ADME; conditions: 37° C.
Description: Serum Stability Assay. Diluted human serum (25%) (H4522 human serum, Sigma) was centrifuged at 15,000 rpm for 10 min, and the supernatant was collected. A peptide stock solution was diluted into the supernatant to a final concentration of 5 μM and incubated at 37° C. At various time points (0-24 h), 200-μL aliquots were withdrawn and mixed with 100 μL of 15% trichloroacetic acid and incubated at 4° C. overnight. The final mixture was centrifuged at 15,000 rpm for 10 min in a microcentrifuge, and the supernatant was analyzed by reversed-phase HPLC equipped with a C18 column. The amount of remaining peptide (%) was determined by integrating the area underneath the peptide peak (monitored at 214 nm) and comparing with that from the peptide at time 0.

[7] = tested on: HeLa cells; conditions: 100% = equal cargo concentration in cytosol and extracellular medium; cited from earlier work

With `CC(C)CN(C[C@@H](O)[C@H](Cc1ccccc1)NC(=O)O[C@H]1CCOC1)S(=O)(=O)c1ccc(N)cc1` [Amprenavir, reference compound] the “Pgp Substrate” value [1] was “Yes”.

For `CC[C@H](C)[C@H](NC(=O)[C@@H](NC(=O)[C@@H](NC(=O)[C@@H](NC(=O)c1ccnc(Cl)c1Cl)C(C)(C)C)C1CCCCC1)C(C)(C)O)C(=O)N[C@H](C(=O)N[C@@H](CCC(N)=O)C(=O)N[C@@H](Cc1c[nH]cn1)C(=O)N[C@H](CC(C)C)C(=O)N[C@@H](CO)C(=O)NCCC(=O)N[C@@H](CCCCNC(=O)CC[C@@H]1NC(=O)[C@@H](CCCNC(=N)N)NC(=O)[C@H](CCCNC(=N)N)NC(=O)[C@@H](CCCNC(=N)N)NC(=O)[C@H](CCCNC(=N)N)NC(=O)[C@H](Cc2ccc3ccccc3c2)NC(=O)[C@@H](Cc2ccccc2)NC1=O)C(N)=O)[C@@H](C)O` [Compound 44, (DCNA)-Tle-Chg-Bhv-Ile-Thr-Gln-His-(D-Leu)-Ser-βAla-Lys{[cyclo-(Gln-(D-Arg)-Arg-(D-Arg)-Arg-(2-Nal)-(D-Phe)]}-NH2] (I: X1-[Tle][Chg][Val(3-OH)]ITQH[dL]S[βAla]K-NH2 / II: cyclo([2Nal]R[dR]R[dR]E[dF]); amide I:11-II:6 (inferred); ring closure inferred), the “solubility relative to CNI103” value [2] was “less soluble”.

With `CC[C@H](C)[C@H](NC(=O)[C@@H](NC(=O)c1cccc(Cl)c1Cl)C(C)(C)C)C(=O)N[C@H](C(=O)N[C@H](C(=O)N[C@H](C(=O)N[C@@H](Cc1ccc(O)cc1)C(=O)N[C@H](CCC(=O)O)C(=O)N[C@@H](Cc1ccc(F)cc1)C(=O)NCC(=O)NCCC(=O)N[C@@H](CCCCNC(=S)Nc1ccc2c(c1)C(=O)OC21c2ccc(O)cc2Oc2cc(O)ccc21)C(N)=O)[C@@H](C)O)[C@@H](C)CC)C(C)(C)C` [Peptide 13, Dcb-ZIZIT-Tyr-glu-Fpa-Gly-βAla-Lys (FITC)] ({Benzoyl(2,3-Cl2)}-[Tle]I[Tle]ITY[dE][Phe(4-F)]G[βAla]K(FITC)-NH2; C-terminus assumed) the “aqueous solubility (qualitative)” value [2] was “good aqueous solubility”.

In the case of `CC[C@H](C)[C@H](NC(=O)[C@@H](NC(=O)c1cccc(Cl)c1Cl)C(C)(C)C)C(=O)N[C@H](C(=O)N[C@H](C(=O)N[C@H](C(=O)N[C@@H](CCC(N)=O)C(=O)N[C@@H](Cc1c[nH]cn1)C(=O)N[C@H](CC(C)C)C(=O)N[C@@H](CO)C(=O)NCCC(=O)N[C@@H](CCCCNC(=S)Nc1ccc2c(c1)C(=O)OC21c2ccc(O)cc2Oc2cc(O)ccc21)C(N)=O)[C@@H](C)O)[C@@H](C)CC)C(C)(C)C` [Peptide 14, Dcb-ZIZIT-Gln-His-leu-Ser-βAla-Lys (FITC)] ({Benzoyl(2,3-Cl2)}-[Tle]I[Tle]ITQH[dL]S[βAla]K(FITC)-NH2; C-terminus assumed), the “aqueous solubility (qualitative)” value [2] is reported as “good aqueous solubility”.

For `CC[C@H](C)[C@H](NC(=O)[C@@H](NC(=O)c1cccc(Cl)c1Cl)C(C)(C)C)C(=O)N[C@H](C(=O)N[C@H](C(=O)N[C@H](C(=O)N[C@@H](CCC(N)=O)C(=O)N[C@@H](Cc1c[nH]cn1)C(=O)N[C@H](CC(C)C)C(=O)N[C@@H](Cc1c[nH]cn1)C(=O)NCCC(=O)N[C@@H](CCCCNC(=S)Nc1ccc2c(c1)C(=O)OC21c2ccc(O)cc2Oc2cc(O)ccc21)C(N)=O)[C@@H](C)O)[C@@H](C)CC)C(C)(C)C` [Peptide 15, Dcb-ZIZIT-Gln-His-leu-His-βAla-Lys (FITC)] ({Benzoyl(2,3-Cl2)}-[Tle]I[Tle]ITQH[dL]H[βAla]K(FITC)-NH2; C-terminus assumed), the “aqueous solubility (qualitative)” value [2] was “lower solubility”.

For `CCOc1ccc(NC(C)=O)cc1` [Phenacetine], the remaining at 5 h [3] was 73.8%, the fraction unbound at 5 h [3] was 0.635 and the recovery at 5 h [4] was 73.3%.

In the case of `CC(C)NCC(O)COc1cccc2ccccc12` (centres unmarked) [Propranolol, reference compound], the Papp B→A at 90 min, 10 μM ([5]; N = 2, 10 μM, 90 min) is reported as 26 ×10⁻⁶ cm/s, the efflux ratio at 90 min, 10 μM ([5]; Papp[B to A]/Papp[A to B]) is reported as 0.7 and the “Pgp Substrate” value [1] is reported as “No”.

Work on `C=C[C@H]1C[N@@]2CC[C@H]1C[C@@H]2[C@@H](O)c1ccnc2ccc(OC)cc12` [Quinidine] yielded a remaining at 5 h [3] of 107%, a fraction unbound at 5 h [3] of 0.243 and a recovery at 5 h [4] of 102%.

Work on `CC(=O)CC(c1ccccc1)c1c(O)c2ccccc2oc1=O` (centres unmarked) [Warfarin] yielded a remaining at 5 h [3] of 101%, a fraction unbound at 5 h [3] of 0.086 and a recovery at 5 h [4] of 103%.

With “VIVIT: VIVIT (SEQ ID NO: 2) peptide, a CNBM blocking NFAT (Description: CN binding motif)” the “half-life in human serum” value [6] was roughly 1 h and the “time to complete degradation in human serum” value [6] was no more than 6 h.

In the case of “cyclic (fΦRrRrQ) (cyclo([dF][2Nal]R[dR]R[dR]Q); SMILES N=C(N)NCCC[C@@H]1NC(=O)[C@H](Cc2ccc3ccccc3c2)NC(=O)[C@@H](Cc2ccccc2)NC(=O)[C@H](CCC(N)=O)NC(=O)[C@@H](CCCNC(=N)N)NC(=O)[C@H](CCCNC(=N)N)NC(=O)[C@@H](CCCNC(=N)N)NC1=O) [CPP9]”, the “absolute cytosolic delivery efficiency” value [7] is given as 62%.
